Assay results taken from patent publication US12167999B2, “Anti-inflammatory and mydriatic intracameral solutions for inhibition of postoperative ocular inflammatory conditions” (Rayner Intraocular Lenses Limited, priority 2014, dated 2024).
Where two headings read alike, the source gives them in different places.

What was measured:
[1] = human, in vivo
Description: Patients undergoing cataract extraction and lens replacement (CELR) were eligible. Written informed consent was obtained from 14 subjects, each of whom received topical ophthalmic ketorolac according to the surgeon's usual practice, beginning one day preoperatively. Immediately prior to the initial surgical incision, the surgeon withdrew a 100-μL sample of aqueous humor from the operative eye with a 30-gauge tuberculin syringe. At the conclusion of CELR prior to final re-inflation of the anterior chamber and wound closure, the surgeon withdrew another 100-μL sample from the anterior chamber. The ketorolac concentrations of the intracameral fluid samples were analyzed by an analytical laboratory.

[2] = molecular target: COX-1 (Homo sapiens, UniProt P23219); details: cited from earlier work
[3] = tested on: COX-2; test: Estimated percent inhibition of COX-2 from tissue ketorolac concentrations in dogs; format: in vivo, female beagles; details: for estimated COX-2 inhibition: retina
Description: IOL replacement by phacoemulsification was performed on 20 female beagles. During the procedure, OMS302 was administered in BSS solution via irrigation and intracameral injection immediately post-procedure. […] Four animals per time point were sacrificed at 0, 2, 6, 8, and 10 hours post-procedure. Samples of blood and aqueous humor were collected. Enucleated eyes were frozen and dissected for collection of retina, retinal pigmented epithelium-choroid, cornea, iris-ciliary body, vitreous humor, sclera, and lens capsule. Tissue concentrations of ketorolac were quantitated using a liquid chromatography/mass spectrometry (LCMS) method.

[4] = tested on: PGE2 production; details: ketorolac 0.45% compared to nepafenac 0.1% and bromfenac 0.09; cited from earlier work
[5] = Ocular tissue distribution of ketorolac after intracameral OMS302 during IOL replacement in dogs; format: in vivo, female beagles
Description: This example describes the results of an in vivo study in dogs to determine the concentrations of ketorolac in the retina and other ocular tissues following the intracameral administration of phenylephrine 1% and ketorolac 0.3% injection formulated as described in Table 1 (OMS302) during IOL replacement in dogs.
(§1) IOL replacement by phacoemulsification was performed on 20 female beagles. During the procedure, OMS302 was administered in BSS solution via irrigation and intracameral injection immediately post-procedure. The target dose level of ketorolac was 5.71 mg/eye, and the target dose volume of OMS302 diluted in BSS solution was […] per eye. Four animals per time point were sacrificed at 0, 2, 6, 8, and 10 hours post-procedure. Samples of blood and aqueous humor were collected. Enucleated eyes were frozen and dissected for collection of retina, retinal pigmented epithelium-choroid, cornea, iris-ciliary body, vitreous humor, sclera, and lens capsule. Tissue concentrations of ketorolac were quantitated using a liquid chromatography/mass spectrometry (LCMS) method. Using published IC50 values for cyclooxygenase (COX) inhibition by ketorolac (Waterbury, et. al., Curr Med Res Opin 22(6):1133-40 (2006)), estimates of percent inhibition were derived for each time point.

[6] = tested on: COX-1; test: Estimated percent inhibition of COX-1 from tissue ketorolac concentrations in dogs; format: in vivo, female beagles; details: for estimated COX-1 inhibition: retina
Description: as §1

[7] = molecular target: T1, COX-2 (Homo sapiens, UniProt P35354); details: cited from earlier work
T1 sequence (P35354 18-604): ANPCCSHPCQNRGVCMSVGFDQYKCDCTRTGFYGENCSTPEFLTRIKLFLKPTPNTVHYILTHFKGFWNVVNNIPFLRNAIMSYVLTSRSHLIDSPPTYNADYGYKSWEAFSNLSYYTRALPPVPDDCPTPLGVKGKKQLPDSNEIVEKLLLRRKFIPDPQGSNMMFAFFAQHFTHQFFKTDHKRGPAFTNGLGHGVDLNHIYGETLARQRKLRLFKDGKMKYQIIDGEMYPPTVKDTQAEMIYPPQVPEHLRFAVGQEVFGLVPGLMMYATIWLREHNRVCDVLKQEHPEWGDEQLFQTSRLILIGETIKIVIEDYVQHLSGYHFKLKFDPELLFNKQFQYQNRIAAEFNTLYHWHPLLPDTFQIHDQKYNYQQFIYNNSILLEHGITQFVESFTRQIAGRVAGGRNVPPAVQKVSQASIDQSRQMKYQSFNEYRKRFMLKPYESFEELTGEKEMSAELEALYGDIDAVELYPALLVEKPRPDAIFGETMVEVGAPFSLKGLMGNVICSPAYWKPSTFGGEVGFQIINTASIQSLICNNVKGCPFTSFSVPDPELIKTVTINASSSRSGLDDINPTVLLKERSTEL

[8] = used for the estimate of percent inhibition
[9] = aqueous humor, vitreous humor and RPE-choroid, t=8 hours
[10] = for at least 8 hours following drug administration
[11] = for at least 10 hours following drug administration

COX-1 (Homo sapiens, UniProt P23219), sequence (P23219 24-599): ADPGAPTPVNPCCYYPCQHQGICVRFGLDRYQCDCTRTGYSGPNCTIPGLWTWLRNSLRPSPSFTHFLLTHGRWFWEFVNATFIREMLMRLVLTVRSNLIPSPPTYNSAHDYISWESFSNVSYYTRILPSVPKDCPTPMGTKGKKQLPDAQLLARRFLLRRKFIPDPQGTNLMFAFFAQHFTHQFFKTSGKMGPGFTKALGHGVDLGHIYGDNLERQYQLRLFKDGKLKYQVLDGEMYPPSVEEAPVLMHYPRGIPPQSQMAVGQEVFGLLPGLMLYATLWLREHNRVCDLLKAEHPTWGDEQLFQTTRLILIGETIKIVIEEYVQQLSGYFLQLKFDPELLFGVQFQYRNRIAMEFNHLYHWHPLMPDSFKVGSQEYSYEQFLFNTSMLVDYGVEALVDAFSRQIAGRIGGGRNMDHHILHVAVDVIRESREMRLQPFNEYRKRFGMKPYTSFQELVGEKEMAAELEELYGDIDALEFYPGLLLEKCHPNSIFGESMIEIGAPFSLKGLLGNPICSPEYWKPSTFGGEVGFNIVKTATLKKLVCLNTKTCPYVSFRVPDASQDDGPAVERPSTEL

subjects with an undetectable concentration of ketorolac in the aqueous humor at the end of the surgical procedure [1]: 66.7%
concentration at 0 h ([5]; female, beagle, dog, plasma, 5.71 mg/eye, t=0, read-out: mean plasma level of ketorolac): 4.73 ± 1.46 ng/mL
concentration at 8 h ([5]; female, beagle, dog, retina, 5.71 mg/eye, eight hours post-procedure, intracameral OMS302 in BSS): 164 ± 39 ng/g
concentration at 0 h ([5]; female, beagle, dog, retina, 5.71 mg/eye, immediately following the end of IOL replacement (t=0), intracameral OMS302 in BSS, read-out: Ketorolac concentration in the retina): 1400 ± 1000 ng/g
half-life ([5]; female, beagle, dog, retina, 5.71 mg/eye, ketorolac after intracameral OMS302, read-out: retinal half-life (converted)): ~3.8 h
mean plasma level of ketorolac ([5]; t≥2 hours): undetectable
SMILES: O=C(c1ccccc1)c1ccc2n1CCC2C(=O)O (racemic) [ketorolac, (+/−)-5-Benzoyl-2,3-dihydro-1H-pyrrolizine-1-carboxylic acid: 2-amino-2(hydroxymethyl)-1,3-propanediol (1:1)]
IC50 ([2]; published value): 20 nM
Ki [2, 8]: 10 nM
inhibition of COX-2 [3, 9]: > 90%
inhibition of COX-2 in ocular tissues [3, 10]: at least 90%
inhibition of COX-2 in ocular tissues [3, 11]: at least 85%
estimated COX-2 inhibition ([3]; t=0): 96.0%
estimated COX-2 inhibition ([3]; t=8 hours): 91.1%
inhibition of PGE2 [4]: greatest inhibition
inhibition of COX-1 [6, 9]: > 90%
inhibition of COX-1 in ocular tissues [6, 10]: at least 90%
inhibition of COX-1 in ocular tissues [6, 11]: at least 85%
estimated COX-1 inhibition ([6]; t=0): 99.3%
estimated COX-1 inhibition ([6]; t=8 hours): 98.4%
mean percent inhibition of COX-1 ([6]; retinal tissue, t=10 hours, standard deviation 0.36%): 97.74%
IC50 ([7]; published value): 120 nM
Ki [7, 8]: 60 nM
